Assay results: patent US11426441B2, “Composition comprising protein phosphatase 1 inhibitory peptide for treating vascular diseases” (BethphaGen Inc., priority 2016, dated 2022)

Columns and labels:
[1] = tested on: rat aortic smooth muscle cells (RASMCs); assay: RASMC proliferation (PCNA immunostaining, EZ-CyTox cell viability assay); type: cell-based; conditions: RASMCs, synthetic conditions, calpain inhibitor
Method: (§1) The rat aortic smooth muscle cells (RASMCs) were isolated from the medial layer of the thoracic aorta derived from male Sprague-Dawley rats (body weight, 180-200 g) by an enzymatic reaction with collagenase (50 U/mL, Worthington) and pancreatic elastase (0.25 mg/mL, Sigma-Aldrich) for 4 hours at 37. The cells were collected and resuspended in DMEM containing 20% (v/v) fetal bovine serum. The resuspension was then plated on collagen I (Sigma-Aldrich)-coated glass coverslips and incubated at 37 in an atmosphere of 5% (v/v) CO2 and 95% (v/v) air. Human coronary smooth muscle cells (HCSMCs), pulmonary arterial endothelial cells (PAECs), and pulmonary arterial smooth muscle cells (PASMCs) were purchased from Lonza and cultured in EBM or SmBM (Lonza) supplemented with 0.5 mg/mL hEGF, […], 1 mg/mL hFGF, […] gentamicin/amphotericin-B, and 5% fetal bovine serum. All the cells were cultured at 37 in 5% (v/v) CO2 and 95% (v/v) air. RASMCs and HCSMCs were, respectively, plated at the densities of 1×10^4 cells/cm^2 and 1×10^5 cells/cm^2 for immunostaining and western blotting experiments. For RASMC and PASMC cell proliferation experiments, these cells were cultured in fetal bovine serum-free media for 3 days, and then proliferation was induced by serum addition.
Rat aortic smooth muscle cells (RASMCs) were fixed in 4% (w/v) paraformaldehyde at room temperature for 10 min, washed with PBS, and then transmitted with 0.1% (v/v) Triton X-100 in PBS for 40 min. After washing and blocking with 3% (w/v) BSA in PBS, the cells were incubated overnight at room temperature with antibodies against SERCA2a (1:250), SERCA2b (1:250), and PCNA (1:50). On the following day, the cells were washed with PBS and incubated with anti-rabbit and anti-mouse IgG conjugated to Alexa Fluor 488 and 594, respectively, for 1 hour at room temperature. The cells were treated with FluoroGuard antifade reagent (Bio-Rad, Hercules, Calif., USA), and the coverslips were examined under a fluorescent microscope. […]

cytosolic Ca^2+ level = assay: Intracellular Ca2+ measurement in HCSMCs; type: cell-based, human
Method: (§2) FIGS. 4a, 4b, 4c and 4d. (4a-4c) HCSMCs were pretreated with 3 μM ψPLB-SE and 15 μM MDL28170 for 1 hour, and then treated with 50 μM A23187 for 2 hours. (4a) Immunostaining was performed with antibodies against SERCA2a and SERCA2b (green). Nuclei were stained with Hoechst (blue). Representative merged images are shown. Scale bar, 50 μm. (4b) Western blot analysis was performed with cell extracts. Data are expressed as the means±SD (n=3-4; *, P<0.05). (4c) Baseline Ca^2+ concentration was measured by lonOptix calcium imaging system. (4d) RASMC were treated with ψPLB-SE or control peptide under the same conditions as described for FIG. 1B. The baseline Ca^2+ concentration was measured by lonOptix calcium imaging system (*, P<0.05).
The intracellular Ca^2+ level was measured in VSMCs by loading cells with 0.5 μM Fura2-AM (Molecular Probes, Eugene Oreg., USA), a Ca^2+-sensitive indicator, for 15 minutes at 37. The fluorescence was recorded using the lonOptix calcium imaging system. VSMCs were stimulated by the exposure to light emitted by a 75 W halogen lamp through either a 340 nm or 380 nm filter. The fluorescent emissions were detected between 480 nm and 520 nm by a photomultiplier tube after an initial illumination at 340 nm for 0.5 second and then at 380 nm during recording. The 340 nm excitation scan was repeated at the end of the protocol, and qualitative changes in the intracellular Ca^2+ level were inferred from the ratio of the Fura2 fluorescent intensity at both wavelengths.

SERCA2a [2] = assay: A23187-induced SERCA2a degradation in HCSMCs; type: cell-based, human
Method: as §2
as §1, with “For RASMC and PASMC cell proliferation experiments, these cells were cultured in fetal bovine serum-free media for 3 days, and then proliferation was induced by serum addition.” left out
Vascular smooth muscle cells (VSMCs) were homogenized in a minimal volume of 50 mM Tris-HCl, pH 7.4, supplemented with a broad-spectrum protease inhibitor cocktail (Calbiochem). […] The blots were scanned and quantified using LAS software.

SERCA2a [3] = assay: SERCA2a level and stability in RASMCs (immunostaining, western blotting); type: cell-based, rat; conditions: synthetic conditions, calpain inhibitor
Method: Rat aortic smooth muscle cells (RASMCs) were fixed in 4% (w/v) paraformaldehyde at room temperature for 10 min, washed with PBS, and then transmitted with 0.1% (v/v) Triton X-100 in PBS for 40 min. After washing and blocking with 3% (w/v) BSA in PBS, the cells were incubated overnight at room temperature with antibodies against SERCA2a (1:250), SERCA2b (1:250), and PCNA (1:50). On the following day, the cells were washed with PBS and incubated with anti-rabbit and anti-mouse IgG conjugated to Alexa Fluor 488 and 594, respectively, for 1 hour at room temperature. The cells were treated with FluoroGuard antifade reagent (Bio-Rad, Hercules, Calif., USA), and the coverslips were examined under a fluorescent microscope.
(§3) Vascular smooth muscle cells (VSMCs) were homogenized in a minimal volume of 50 mM Tris-HCl, pH 7.4, supplemented with a broad-spectrum protease inhibitor cocktail (Calbiochem). The proteins were separated by SDS-PAGE and then transferred to polyvinylidene fluoride membranes (Schleicher & Schuell). After blocking with 5% (w/v) non-fat milk for 1 hour and washing with TBST, the membranes were incubated with antibodies against SERCA2a, SERCA2b (21st century biochemical), PCNA (abcam), GAPDH (Sigma-Aldrich), phospho-eNOS, eNOS, phospho-eIF2α, eIF2α (cell signaling), Vimentin, α-SMA, BMPR2 (Santa cruz), phospho-Akt, Akt (cell signaling), phospho-phospholamban (Merck), and Phospholamban (cell signaling). The membranes were then incubated with horseradish peroxidase-conjugated secondary antibodies (Jackson ImmunoResearch, West Grove, Pa., USA) and developed using a chemiluminescent substrate (Dogen). The blots were scanned and quantified using LAS software.
RASMCs were cultured in DMEM supplemented with 0.1% (v/v) FBS (Contractile) or in DMEM supplemented with 10% (v/v) FBS (Synthetic) in the presence of 3 μM control or ψPLB-SE peptide. Cycloheximide (Sigma) was added to media to a final concentration of 5 μg/ml. Cells were harvested after 0, 3, and 5 days of incubation and their protein extracts were subjected to western blotting.

eNOS and Akt = eNOS and Akt phosphorylation in PAECs (western blotting); type: cell-based; conditions: 100 nM okadaic acid
Method: FIGS. 16a, 16b and 16c. (16a-16b) PAECs were treated with 3 μM ψPLB-SE for 1 hour, and protein expression was quantitatively analyzed through western blotting using antibodies against Phospho-eNOS (ser1177), total eNOS, phospho-Akt (Ser473, Thr308), total Akt, and GAPDH. (16c) The pulmonary tissue lysate was subjected to immunoprecipitation using PP1 antibody to investigate the interactions of PP1 with eNOS and Akt depending on the presence or absence of the treatment with ψPLB-SE using respective antibodies therefor.
FIGS. 17a, 17b and 17c. (17a) PAECs were treated with 50 μM LY294002, a PI3K inhibitor, for 24 hours, and then treated with 3 μM ψPLB-SE for 1 hour. Protein expression was quantitatively analyzed through western blotting using antibodies against Phospho-eNOS (ser1177), total eNOS, phospho-Akt (Ser473, Thr308), total Akt, and GAPDH. (17b) PAECs were treated with 10 μM inhibitor IV, an Akt inhibitor, for 2 hours, and then treated with 3 μM ψPLB-SE for 1 hour. Protein expression was quantitatively analyzed through western blotting using antibodies against total eNOS and GAPDH. (17c) PAECs were treated with 100 nM OA, a PP1 inhibitor, for 24 hours, and then treated with 3 μM ψPLB-SE for 1 hour. Protein expression was quantitatively analyzed through western blotting using antibodies against Phospho-eNOS (ser1177), total eNOS, phospho-Akt (Ser473, Thr308), total Akt, and GAPDH.
ψPLB-SE (RAE16TIEMPQ; SEQ ID NO: 2) was derived from the PLB protein sequence surrounding the Ser16 phosphorylation site. To facilitate uptake into cells, the peptide was conjugated to the cell penetrating peptide dNP2 ([…]; SEQ ID NO: 21) or TAT (YGRKKRRQRRR; SEQ ID NO: 22). The peptides used in the present invention were PLB-SE (RAETIEMPQ; SEQ ID NO: 2) and control peptide (RASTIEMPQ; SEQ ID NO: 23). PLB-SE and cell penetrating peptide were connected by a linker peptide (GGG; SEQ ID NO: 24) The peptides (purity of 95% or higher, AnyGen, Gwangju, Korea) was resuspended in double-distilled water or physiological saline at a stock concentration of 3 mM (cells), 2.5 mg/ml (rats), or 500 μg/ml (mice). The rats were treated with 1 mg/kg peptides and mice were treated with 2 mg/kg peptides. The rat aortic smooth muscle cells (RASMCs), human coronary smooth muscle cells (HCSMCs), pulmonary arterial endothelial cells (PAECs), and pulmonary arterial smooth muscle cells (PASMCs) were treated with the peptides at a final concentration of 3 μM for 1 hour. The PI3K inhibitor LY294002 (Millipore, USA), the Akt inhibitor Inhibitor IV (Calbiochem, USA), and the PP1 inhibitor okadaic acid (Sigma Aldrich, USA), used in the experiments using pulmonary arterial endothelial cells (PAECs), were purchased. For the monocrotaline aqueous solution, the monocrotaline powder (Sigma Aldrich, USA) was dissolved in a small amount of a 1 M hydrochloric acid solution (HCL), diluted with sterilized distilled water, and adjusted to pH 7.35 by addition of sodium hydroxide (NaOH). The animals were bred and observed in the same conditions as in the control group during the experiment periods. In addition, the calcium ionophore A23187 and the calpain I and II inhibitors MDL28170 and […] were purchased from Sigma-Aldrich (St. Louis, Mo., USA).
as §3, with “The membranes were then incubated with horseradish peroxidase-conjugated secondary antibodies (Jackson ImmunoResearch, West Grove, Pa., USA) and developed using a chemiluminescent substrate (Dogen). The blots were scanned and quantified using LAS software.” left out

[4] = HCSMCs pretreated 1 hour with 3 μM ψPLB-SE or 15 μM MDL28170, then 50 μM A23187 2 hours
[5] = HCSMCs, 50 μM A23187 for 2 hours

MDL28170 [reference compound]
PCNA level [1]: decreased
elevation of the cytosolic Ca^2+ level by A23187 (cytosolic Ca^2+ level; [4]): not
A23187 (Ca^2+)-dependent degradation of SERCA2a (SERCA2a [2]; [4]): completely blocked
degradation of SERCA2a (immunostaining) (SERCA2a [3]): inhibited
degradation of SERCA2a (western blotting) (SERCA2a [3]): protective effect

C=C1[C@@H](O)[C@@H]2O[C@]3(CC[C@H](/C=C/[C@@H](C)[C@@H]4CC(C)=C[C@@]5(O[C@H](C[C@@](C)(O)C(=O)O)CC[C@H]5O)O4)O3)CC[C@H]2O[C@@H]1[C@@H](O)C[C@H](C)[C@H]1O[C@@]2(CCCCO2)CC[C@H]1C [okadaic acid, reference compound]
phosphorylation of Akt and eNOS (eNOS and Akt): increased

CNc1ccc2oc(C[C@H]3O[C@@]4(CC[C@H]3C)O[C@H]([C@H](C)C(=O)c3ccc[nH]3)[C@H](C)C[C@H]4C)nc2c1C(=O)O [A23187]
cytosolic Ca^2+ level (cytosolic Ca^2+ level; [5]): elevation
degradation of SERCA2a (SERCA2a [2]; [5]): evoked the degradation
